{"source": "patent US9623039B2", "about": "“Treatment and prevention of pathological conditions using iduna related techniques and compositions” (VALTED, LLC, priority 2010, dated 2017)", "key": {"PARP-1": {"target": "T1, PARP-1 (Homo sapiens, UniProt P09874)", "T1 construct": "purchased Trevigen", "T1 sequence (P09874 whole entry)": "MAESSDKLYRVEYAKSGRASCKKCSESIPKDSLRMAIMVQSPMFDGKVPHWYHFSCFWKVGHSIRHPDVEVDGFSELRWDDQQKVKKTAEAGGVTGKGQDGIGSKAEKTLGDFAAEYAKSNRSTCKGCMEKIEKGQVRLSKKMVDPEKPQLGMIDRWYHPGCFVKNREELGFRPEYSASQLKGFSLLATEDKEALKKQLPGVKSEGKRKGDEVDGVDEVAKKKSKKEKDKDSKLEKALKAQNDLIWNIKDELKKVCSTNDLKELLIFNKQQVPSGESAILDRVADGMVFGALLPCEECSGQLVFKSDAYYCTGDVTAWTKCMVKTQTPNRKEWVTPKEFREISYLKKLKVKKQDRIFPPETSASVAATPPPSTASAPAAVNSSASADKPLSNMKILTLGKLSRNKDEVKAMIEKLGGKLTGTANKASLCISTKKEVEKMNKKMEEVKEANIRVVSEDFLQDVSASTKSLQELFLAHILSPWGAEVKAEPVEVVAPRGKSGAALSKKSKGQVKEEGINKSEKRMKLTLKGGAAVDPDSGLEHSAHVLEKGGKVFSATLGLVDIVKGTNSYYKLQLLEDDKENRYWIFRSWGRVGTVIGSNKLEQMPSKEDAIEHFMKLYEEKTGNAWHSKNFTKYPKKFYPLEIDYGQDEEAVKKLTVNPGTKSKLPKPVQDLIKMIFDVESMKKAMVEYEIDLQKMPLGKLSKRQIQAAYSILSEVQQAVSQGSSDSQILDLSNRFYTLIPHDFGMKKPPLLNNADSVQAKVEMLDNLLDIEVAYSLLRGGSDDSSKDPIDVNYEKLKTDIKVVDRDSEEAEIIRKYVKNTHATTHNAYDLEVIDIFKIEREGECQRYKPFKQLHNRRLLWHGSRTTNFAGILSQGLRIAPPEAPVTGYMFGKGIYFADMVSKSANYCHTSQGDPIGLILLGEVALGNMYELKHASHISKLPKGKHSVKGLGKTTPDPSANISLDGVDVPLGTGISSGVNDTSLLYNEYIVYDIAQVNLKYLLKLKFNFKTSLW", "experiment": "Chemiluminescent PARP assay (biotinylated PAR onto histone)", "format": "biochemical", "conditions": "incorporation of biotinylated PAR onto histone proteins", "method": "Because PARP-1 activation plays a prominent role in NMDA excitotoxicity we tested whether PARP-1 activity is directly affected by Iduna. PARP-1 activity was assessed by incorporation of biotinylated PAR onto histone proteins.\nChemiluminescent PARP assay for poly(ADP-ribosyl)ation of Histone H1: Activity of PARP-1 was determined by Trevigen Universal chemiluminescent PARP assay kit (Trevigen, Gaithersburg, Md., USA) in the presence of Iduna or the PARP-1 inhibitor 3-aminobenzamide (3-AB). According to manufacturer's instructions, the incorporation of biotinylated NAD+ (Trevigen) into the poly(ADP-ribose) polymer primed at solid phase immobilized histone H1 (Trevigen) was detected by the chemiluminescent assay, either in the presence or absence of recombinant Iduna. Reactions were performed with 34 μM total biotinylated NAD+ for 60 min at 25° C. in triplicates. Chemiluminescence was measured using a fluorescence multi-well plate reader (SOSTmax, Sunnyvale, Calif.) with an excitation at 544 nm excitation/590 nm emission. In the parallel wells, PARP1 activity was measured after the 3-aminobenzamide treatment at the same concentration of biotinylated NAD+ (34 μM)."}, "MCF7 cells": {"tested_on": "MCF7 cells", "experiment": "Laser micro-irradiation-induced DNA damage, recruitment of GFP-Iduna", "format": "cell-based, human", "conditions": "405 nm laser microirradiation", "method": "Live-cell imaging and Laser micro-irradiation-induced DNA damage: For induction of localized DNA damage, MCF 7 cells stably expressing GFP-Iduna or GFP-Iduna-YRAA were plated onto 25 mm glass bottom culture dishes for 48 h. Cells were presensitized with 10 μM 5-bromo-2′-deoxyuridine (BrdU, Sigma) for 24 h. Cells were incubated with 2 μM Hoechst (Invitrogen) for 5 min and mounted on a preheated (37° C.) stage on a Zeiss LSM 710 confocal microscope equipped with 405 nm laser source. A laser microbeam was focused on a small rectangular strip of nucleus through 63× oil objective to induce localized DNA damage. The laser setting was set to 100% power output with a scanning speed of 1 and 6-10 laser iterations. The kinetics were calculated using Zeiss Zen 2010 software. Time point before irradiation represents—1 min and the time point just after irradiation represent 0 min. Each data series was normalized with respect to base line data intensity values."}, "primary neurons": {"tested_on": "primary neurons", "experiment": "H2O2-induced cell death in primary neurons", "format": "cell-based, mouse", "method": "FIGS. 44 and 45—Iduna protects against peroxide-induced cell death in primary neurons. Primary neuronal cultures were transduced with lentiviruses expressing GFP, GFP-Iduna or GFP-Iduna-YRAA. 4 days following lentiviral transduction, cultures were treated with H2O2 (100 μM or 500 μM) and cell death assessed 24 h later using PI and Hoechst staining.\nCell Death Assessment: Following exposure of neuronal cultures to the various treatments neuronal survival was quantified and presented as percent of cell death. Percent cell death was determined as the ratio of live-to-dead cells compared with the percent cell death in control wells to account for cell death attributable to mechanical stimulation of the cultures. Quantification of neuronal survival was determined by staining treated cultures with 5 μM Hoechst 33342 and 2 μM propidium iodide (PI) (Invitrogen, Carlsbad, Calif.). Culture plates were placed on a mechanized stage of a Zeiss microscope and photomicrographs were collected by a blinded observer. The numbers of total and dead (PI positive) cells were counted by automated computer assisted software (Axiovision 4.6, Zeiss, Germany). The raw counts are presented in an Excel file for generation of percent cell death and statistical analysis. Glial nuclei fluoresce at a lower intensity than neuronal nuclei and were gated out by the software program. […]"}, "neuronal cultures": {"tested_on": "neuronal cultures", "experiment": "Caspase-dependent cell death (camptothecin, staurosporine) in neuronal cultures", "format": "cell-based, mouse", "conditions": "for protection against cell death: 24 h", "method": "(§1) FIG. 42—Neuronal cultures expressing lenti-viral mediated GFP, GFP-Iduna or GFP-Iduna-YRAA were treated with camptothecin (CPT, 20 μM) and cell death assessed 24 h later using PI and Hoechst staining. […] Data represent the mean±SEM, n=4 of two independent experiments. *p<0.05 by ANOVA with Tukey-Kramer's posthoc test.\nas §1, with “43—Neuronal” for “42—Neuronal”, “staurosporine (STS, 500 nM)” for “camptothecin (CPT, 20 μM)”\nCell Death Assessment: Following exposure of neuronal cultures to the various treatments neuronal survival was quantified and presented as percent of cell death. Percent cell death was determined as the ratio of live-to-dead cells compared with the percent cell death in control wells to account for cell death attributable to mechanical stimulation of the cultures. Quantification of neuronal survival was determined by staining treated cultures with 5 μM Hoechst 33342 and 2 μM propidium iodide (PI) (Invitrogen, Carlsbad, Calif.). Culture plates were placed on a mechanized stage of a Zeiss microscope and photomicrographs were collected by a blinded observer. The numbers of total and dead (PI positive) cells were counted by automated computer assisted software (Axiovision 4.6, Zeiss, Germany). The raw counts are presented in an Excel file for generation of percent cell death and statistical analysis. Glial nuclei fluoresce at a lower intensity than neuronal nuclei and were gated out by the software program. At least two separate experiments using four separate wells were performed for all data points."}, "PAR polymer": {"tested_on": "PAR polymer", "experiment": "PAR polymer overlay / dot blot (far western)", "format": "binding", "conditions": "PAR polymer overlay assay", "text": "PAR binding is specified by a sequence of approximately 20 amino acids containing N-terminal basic amino acids and a C-terminal region containing alternating hydrophobic and basic amino acids (FIG. 24). Iduna contains a predicted PAR polymer binding sequence within amino acids 144-167 of the WWE domain (FIGS. 1 and 24). The PAR-binding domain was defined by comparing to the consensus sequence for PAR-binding and the known PAR binding domain of Histone 3 (FIG. 24). HEK293 cells were transfected with GFP, GFP-Iduna lacking the WWE domain (GFP-IdunaΔWWE), GFP-Iduna lacking the RF domain (GFP-IdunaARF), and full-length GFP-Iduna, followed by immunoprecipitation with a GFP antibody. […] Only GFP-Iduna-ARF and full-length GFP-Iduna can co-immunoprecipiate PAR binding proteins (FIG. 25). The critical amino acids in the PAR binding domain, 156Y and 157R, were mutated to 156A and 157A in full length Iduna (Iduna-YRAA). […] Similar results are obtained with a biotin-tagged PAR polymer followed by detection with an anti-biotin antibody (FIG. 26). […] Histone H3 is a known PAR binding protein and was used as a positive control for the PAR overlay assay. […] An assay based on electrophorectic mobility shift (EMSA) for PAR binding was developed to monitor PAR polymer binding to Iduna. […]"}}, "note": "Where a SMILES comes first, the peptide text is derived from it. The star is where a group is joined. Cbz = O=C(OCc1ccccc1)*; CH2F = FC*"}
{"molecule": "NC(=O)c1cccc(N)c1", "note": "[3-AB, 3-aminobenzamide, reference compound]", "values": [{"measurement": "PARP-1 activity", "setting": "PARP-1", "value": "inhibits PARP-1 activity"}]}
{"molecule": "CN(C)Cc1ccc(-c2nc3cccc4c3n2CCNC4=O)cc1", "note": "[AG14361]", "values": [{"measurement": "recruitment of GFP-Iduna to laser-induced DNA breaks", "setting": "MCF7 cells", "value": "blocks the translocation of Iduna"}]}
{"molecule": "O=C1NCCc2c(OCCCCN3CCCCC3)cccc21", "note": "[DPQ]", "values": [{"measurement": "protection against H2O2 toxicity", "setting": "primary neurons; 100 μM H2O2", "value": "only protected against 100 μM H2O2 toxicity"}, {"measurement": "protection against H2O2 toxicity", "setting": "primary neurons; 500 μM H2O2", "value": "Neither GFP-Iduna nor DPQ protect"}]}
{"molecule": "COC(=O)C[C@H](NC(=O)[C@H](C)NC(=O)[C@@H](NC(=O)OCc1ccccc1)C(C)C)C(=O)CF", "note": "[z-VAD fmk] (Cbz-Val-Ala-Asp(OMe)-CH2F)", "values": [{"measurement": "protection against cell death", "setting": "neuronal cultures; camptothecin 20 μM", "value": "provides protection"}, {"measurement": "apoptotic cell death", "setting": "neuronal cultures; staurosporine 500 nM or camptothecin 20 μM", "value": "inhibited cell death"}, {"measurement": "protection against cell death", "setting": "neuronal cultures; staurosporine 500 nM", "value": "provides protection"}]}
{"molecule": "Iduna 144-167: synthesized peptide fragment of the predicted PAR polymer binding sequence, amino acids 144-167 of the WWE domain (LYVADLENMVQYRRNEHGRRRKIK; UniProt Q9NTX7 144-167, looked up, fragment)", "values": [{"measurement": "PAR polymer binding", "setting": "PAR polymer", "value": "binds to PAR polymer in a manner comparable to full-length Iduna"}]}
